Data taken from paper PMC11329928, “Design, synthesis and structure-activity relationship (SAR) studies of an unusual class of non-cationic fatty amine-tripeptide conjugates as novel synthetic antimicrobial agents” (Frontiers in Pharmacology, 2024).
Structures can show the parent of a compound that is named as a salt.

Legend:
Escherichia coli DH10B = test: Growth inhibition screening of planktonic cultures (OD550/600); format: cell-based; set-up: key: (+++) full inhibition; (++) partial inhibition; (+) growth retardation; -: (−) no effect; conditions: E. coli DH10B, 50 and 100 μM compound added at T1, OD550/600 followed 10 h, 37°C
Summary of the method: (§1)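 Early exponential-phase cultures (OD550/600 c. a. 0.15–0.2) were treated with DICAMs at 50 and 100 μM final, diluted from DMSO stocks into medium, and incubated 10 h at 37°C. Turbidity (OD550/600) was read every 20 min against untreated controls to track growth inhibition and lysis.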

[1] = system: Pseudomonas aeruginosa PAO1; test: as above; format: cell-based; set-up: key: (+++) full inhibition; (++) partial inhibition; (+) growth retardation; -: (−) no effect; conditions: P. aeruginosa PAO1, 50 and 100 μM compound added at T1, OD550/600 followed 10 h, 37°C
Summary of the method: as §1

Staphylococcus aureus T = test: as above; format: cell-based; set-up: key: (+++) full inhibition; (++) partial inhibition; (+) growth retardation; -: (−) no effect; conditions: S. aureus T, 50 and 100 μM compound added at T1, OD550/600 followed 10 h, 37°C
Summary of the method: as §1

S. pyogenes T = test: Dose dependence of bacterial viability (CFU counting, Hill fit); format: cell-based, Streptococcus pyogenes; conditions: 2 h treatment, 37°C, Hill fit
Text: First, the substitution of the fatty amino chain of 18 carbon atoms of the reference compound DICAM 2 by either an OMe group (methylated tripeptide DICAM 5) or an amine with 12 carbon atoms (DICAM 9) abolished the activity against all three pathogens. However, the activity remained intact when the chain of the fatty amine of prototypes DICAMs 1 and 4 was two carbon atoms shorter (DICAM 10 and DICAM 12, respectively), based on S. pneumoniae and S. pyogenes results. […] Third, Glu and Ala were tolerated as C-terminal residues of the lipotripeptides. […] In addition, deletion of the C-terminal Glu (DICAM 13) eradicated the activity against S. pneumoniae and S. aureus. However, a delay and small inhibition of S. pyogenes ^T growth was still observed. Fourth, Glu (DICAMs 19 and 20) and Orn (DICAMs 21 and 22) were tolerated as N-terminal residues, with the impact of these modifications being pathogen-dependent. […] SAR studies continued by measuring the dose dependence of DICAM’s activity at T1 with all the compounds found to be active against S. pyogenes or S. aureus in the initial screening, and all but one compound in the case of S. pneumoniae. The OD values of bacterial cultures were monitored after DICAM addition, and the decrease in the number of viable bacteria was measured relative to controls (Figures 4–6; Supplementary Figure S1). As antibacterial efficacy may decline with the bacterium dose in the inoculum ([Belley et al., 2009]; [Udekwu et al., 2009]; [Luca et al., 2013]), the assays were performed using the bacterial concentrations necessary for the fluorescence experiments in Section 2.3 (10^7–10^8 CFU/mL). At these high bacterial densities, MICs were determined as the DICAM concentration at which bacteria neither grow nor are killed (the stationary concentration (SC)), following [Udekwu et al., 2009]. By fitting the logarithmic plot of cell viability decrease vs. the DICAM dose to a Hill function (see Section 5.2.3.1) we were able to determine the maximum variation in viability (Δlogmax = ∆log f - ∆log 0, where ∆log f and ∆log 0 are the upper and lower limits of Δlog) in the assay conditions, the SC concentration (Δlog = 0), the dose required for half-variation in Δlogmax (K 1/2), and the cooperativity of the antimicrobial effect (N H).
Susceptibility to DICAMs was first tested by growth-inhibition assays at 50 and 100 μM of compound. Briefly, working solutions at 5 mM or 10 mM DICAM in pure DMSO were prepared from DICAM stocks (40 mM in pure DMSO) and diluted with fresh culture medium to 5× the desired final concentration. Aliquots (50 µL) of these solutions were added to 200 µL of bacterium cultures grown to early exponential phase (OD550/600 c. a. 0.15–0.2 in sterile 96-well plates (Cultek, Spain). Incubation continued for 10 h at 37°C and turbidity (OD550/600) values were measured every 20 min to monitor growth and lysis, using a VersaMax microplate reader (Molecular Devices; United Kingdom). Next, the activity dependence on DICAM’s dose was examined by measuring the turbidity of treated and untreated cultures as a function of time. Also, the decay of bacterial viability (CFU/mL) at selected times of treatment was assessed by colony counting on LB-agar or TSA plates after overnight incubation at 37°C. By default, 10 μL of 10-fold serially diluted samples were plated, which set the lower detection limit at 10^2 CFU/mL (10^1 CFU/mL when 100 μL of the undiluted sample was seeded).
As antibacterial efficacy may decline with the bacterium dose in the inoculum ([Belley et al., 2009]; [Udekwu et al., 2009]; [Luca et al., 2013]), activity assays were performed using the bacterial concentrations required for the fluorescence experiments in Section 2.3 (10^7–10^8 CFU/mL). At such bacterial densities, MICs were determined as the DICAM concentration at which bacteria neither grow nor are killed under assay conditions (the stationary concentration (SC)), as indicated in Section 2.2. […]

[2] = system: human HeLa cervix carcinoma cells; format: cell-based; conditions: 48 h
Experimental: (§2) DICAM’s cytotoxicity was determined employing a modified MTT assay as described elsewhere ([Antúnez-Mojica et al., 2016]) using human lung carcinoma epithelial cells A549, human fetal lung fibroblasts IMR-90, and human HeLa cervix carcinoma cells treated with increasing concentrations of DICAMs (0.8–200 µM range). A549 cells were grown in RPMI 1640 (Gibco; Fisher Scientific, Spain) supplemented with 10% FCS, 2 mM glutamine, 100 IU/mL penicillin and 100 μg/mL streptomycin. IMR-90 and HeLa cells were cultured in DMEM (Gibco; Fisher Scientific, Spain) supplemented with 10% FCS, 2 mM L-glutamine, 1 mM pyruvate, […] penicillin, 100 μg/mL streptomycin and 40 μg/mL gentamycin. Cell viability was assessed after 48 h exposure to DICAMs. Vinblastine was used as a positive control. IC50 value is the concentration that gives 50% inhibition of cell growth and was determined using SigmaPlot (Systat) fitting to a Four Parameter Logistic curve.

[3] = system: human fetal lung fibroblasts IMR-90; format: cell-based; conditions: 48 h
Experimental: as §2

[4] = system: human lung carcinoma epithelial cells A549; format: cell-based; conditions: 48 h
Experimental: as §2

Question: Which results are given for CCCCCCCCCCCCCCCCCCNC(=O)[C@H](CCC(=O)O)NC(=O)[C@H]1CCCN1C(=O)[C@@H](N)CCC(=O)O [DICAM 20, Glu- Pro -Glu-NH-C18H37 · HCl]?
Answer: Growth halt or lysis (50/100 μM), Ec (Escherichia coli DH10B): -; Growth halt or lysis (50/100 μM), Pa [1]: -; Growth halt or lysis (50/100 μM), Sa T (Staphylococcus aureus T): ++; SC (stationary concentration, Δlog = 0), S. pyogenes T (S. pyogenes T; BHI medium, added at T1, 10^7–10^8 CFU/mL, CFU vs untreated controls): 8 ± 2 µM; EC50 (S. pyogenes T; BHI, read-out: K 1/2 (concentration yielding half-variation in Δlogmax), S. pyogenes T (converted)): 17 ± 4 µM; Δlogmax, S. pyogenes T (S. pyogenes T; maximum variation in viability, BHI): ∼3.0 logarithmic units; IC50 [2]: 59.2 ± 0.1 µM; IC50 [3]: 78.6 ± 0.1 µM; IC50 [4]: 91 ± 2 µM
